According to patent US10174358B2 (priority 2013, dated 2019):

Target: T1, EF-Tu:GTP:aa-tRNA ternary complex (Escherichia coli, UniProt P0CE48, C138A/C256V/E349C)
T1 construct: made in house; host or cells: E. coli BL-21
Type: binding
Details: for effect of the inhibitor on fluorescence intensity in the assay: addition of inhibitor to the formed ternary complex, Ex 532/Em 665 nm
Experimental: FRET Assay (Assembly Fluorescence)
FRET measurements were done using Photon Technology International fluorescence spectrofluorometer with FeliX software. Cy3 fluorescence was monitored in the spectrum or time base mode at excitation/emission 549/565 nm. […] The slot parameters and photomultiplier voltage were adjusted to get a response in the range of 0.5-1.2×10^6 RFU for the Cy3 fluorescence scan at the 20-30 nM Phe-tRNA^Phe(Cy3) concentration and 4-5×10^4 RFU for Cy5 fluorescence scan (excitation/emission 633/665 nm) at the 300-400 nM Cy5-EF-Tu concentration. The titration of Phe-tRNA^Phe(Cy3) by Cy5-EF-Tu was typically done in presence of 100 μM GTP in a 150 μl volume of the same incubation buffer as used in the above mentioned gel retardation assay. During the assay (up to 120 minutes), the reaction mix also was supplemented with 1 mM ATP and 5 μg/ml of Phe-tRNA synthetase to prevent deacylation of Phe-tRNA^Phe(Cy3). The concentration of Phe-RNA^Phe(Cy3) was up to 30 nM and GTP:Cy5-EF-Tu was varied in range of 30-240 nM.
All FRET measurements were done using PTI (Photon Technology International) fluorescence spectrofluorometer with FeliX 1.42B software. The FRET was monitored in the time-base mode using the 532 nm excitation and 665 nm emission (suitable for the Cy5 dye). The slot parameters and photomultiplier voltage were adjusted to get a response in the range of 2.6-3×10^3 RFU for the Cy5 fluorescence at a 200 nM concentration of Cy5-labeled EF-Tu. Time-base titration experiments were typically carried out in a 150 μl black cuvette at 25 or 37° C. The Cy5 fluorescence was monitored at five second intervals for up to 2 hours. Cy5-labeled EF-Tu carrying the E348C mutation was added from a concentrated stock solution to reach the final concentration of 180-200 nM.
The 5× incubation buffer was 350 mM HEPES-KOH (pH 7.6), 260 mM NH4OAc, 40 mM Mg(OAc)2, 150 mM KCl, 7 mM DTT and 12.6% glycerol. The 1× incubation buffer in final reaction volume was also supplemented with 1 mM ATP and 5 μg/ml of Phe-tRNA synthetase, 7.2 mM phosphoenolpyruvate and 2.5 U/ml pyruvate kinase; a 40 μM stock of Cy3-labeled aminoacylated tRNA^Phe, a 30 μM stock of Cy3-labeled uncharged tRNA^Phe, a 110 μM stock of Cy5-labeled EF-Tu [C137A, C255V, E348C], a 5 mg/ml stock of Phe-tRNA synthetase, and a 10 mM stock in DMSO (7.97 mg/ml) of Kirromycin (FW 796.9).
The Cy5-labeled EF-Tu [180 nM] (GTP form) in a 300 μl volume was placed in 1× incubation buffer. The volume was split into two parts and measured in two sets at 25° C.
The Cy5-labeled EF-Tu [180 nM] (GTP form) in a 300 μl volume was placed in 1× incubation buffer. The reaction was split into two parts and supplemented with 100 μM GTP (Set I) or GDP (Set II). The fluorescence intensity was measured at 25° C.
The Cy5-labeled EF-Tu [320 nM] (GTP form) was in a 300 μl volume of the 1× incubation buffer. The reaction was supplemented with 100 μM GTP and split on two parts.

T1 sequence (P0CE48 2-394 C138A/C256V/E349C, one chain of several): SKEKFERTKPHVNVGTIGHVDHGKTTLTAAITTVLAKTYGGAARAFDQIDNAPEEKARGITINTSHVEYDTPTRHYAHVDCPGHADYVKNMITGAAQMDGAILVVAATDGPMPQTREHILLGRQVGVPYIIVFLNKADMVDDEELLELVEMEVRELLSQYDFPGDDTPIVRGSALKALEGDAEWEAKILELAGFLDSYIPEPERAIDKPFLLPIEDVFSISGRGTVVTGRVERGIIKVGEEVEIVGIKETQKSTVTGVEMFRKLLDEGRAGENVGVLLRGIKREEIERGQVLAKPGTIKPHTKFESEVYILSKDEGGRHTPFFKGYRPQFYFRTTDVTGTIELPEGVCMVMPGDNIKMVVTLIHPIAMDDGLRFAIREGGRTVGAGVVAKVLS

| Compound | decrease in the Cy5 fluorescence of the formed complex (10-fold molar excess of GDP added to formed complex, Cy5-EF-Tu 180 nM, 100 μM GTP, Phe-tRNA^Phe(Cy3) 160 nM, 25° C., FIG. 12) | FRET response when Cy5-labeled EF-Tu was incubated with GDP (Cy5-EF-Tu 180 nM incubated with 100 μM GDP instead of GTP (plot 2 / set II), FIG. 12) | effect of the inhibitor on fluorescence intensity in the assay | decrease of FRET response after addition of kirromycin (kirromycin 80 μM, Cy5-labeled EF-Tu 180 nM (GTP form), Cy3-PhetRNA^Phe 160 nM, 25° C., FIG. 13) |
| --- | --- | --- | --- | --- |
| Nc1nc2c(ncn2[C@@H]2O[C@H](COP(=O)(O)OP(=O)(O)O)[C@@H](O)[C@H]2O)c(=O)[nH]1 [GDP] | 60% | significantly lower | significantly reduces the fluorescence intensity | – |
| kirromycin | – | – | significantly reduces the fluorescence intensity | approximately 30% |
